Test results published in paper PMC7688046 (ACS Pharmacology & Translational Science, 2020).

Key:
[1] = tested on: cytopathic effects (CPE); settings: at current writing; ref NCATS OpenData Portal; cited from earlier work
[2] = molecular target: SARS-CoV-2 spike protein RBD (RBD-Fc) binding to human ACE2 (ACE2-His-Avi) (Homo sapiens, UniProt Q9BYF1); assay: biochemical; parameters: species or system human ACE2 / SARS-CoV-2 spike
[3] = tested on: ACE2; settings: at current writing; ref NCATS OpenData Portal; cited from earlier work
[4] = tested on: biotinylated rabbit IgG (Fc-protein A and streptavidin–biotin interactions); assay: Biotin-IgG counterassay; settings: cherry-pick hit confirmation
[5] = tested on: streptavidin donor beads / biotin-BSA acceptor beads; settings: primary counterscreen
[6] = molecular target: RBD-Fc interaction with ACE2-His-Avi (Homo sapiens, UniProt Q9BYF1); assay type: binding, human ACE2 / SARS-CoV-2 spike
Chain of RBD-Fc interaction with ACE2-His-Avi (Q9BYF1 18-740): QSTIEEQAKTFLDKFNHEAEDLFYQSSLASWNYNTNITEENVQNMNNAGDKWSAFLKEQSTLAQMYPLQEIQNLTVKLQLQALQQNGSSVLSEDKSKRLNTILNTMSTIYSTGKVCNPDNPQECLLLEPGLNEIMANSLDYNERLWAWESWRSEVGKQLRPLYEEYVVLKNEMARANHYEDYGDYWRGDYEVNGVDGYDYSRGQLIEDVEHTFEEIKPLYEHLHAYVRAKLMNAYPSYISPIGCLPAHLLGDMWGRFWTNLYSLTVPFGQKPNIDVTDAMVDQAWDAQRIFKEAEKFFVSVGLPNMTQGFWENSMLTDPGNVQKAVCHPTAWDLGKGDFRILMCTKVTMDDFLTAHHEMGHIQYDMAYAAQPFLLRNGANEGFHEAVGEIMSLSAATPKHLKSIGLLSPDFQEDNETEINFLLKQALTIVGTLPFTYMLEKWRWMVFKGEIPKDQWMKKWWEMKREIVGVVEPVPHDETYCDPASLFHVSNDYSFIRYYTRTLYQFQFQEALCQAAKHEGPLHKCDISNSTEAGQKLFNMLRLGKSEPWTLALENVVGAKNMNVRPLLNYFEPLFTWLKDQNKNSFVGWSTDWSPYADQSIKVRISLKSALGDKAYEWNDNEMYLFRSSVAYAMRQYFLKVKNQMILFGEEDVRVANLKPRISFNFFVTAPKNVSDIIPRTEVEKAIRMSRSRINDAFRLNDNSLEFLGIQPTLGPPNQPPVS

Chain of SARS-CoV-2 spike protein RBD (RBD-Fc) binding to human ACE2 (ACE2-His-Avi) (Q9BYF1 18-740): as above

O=C(O[C@@H]1O[C@@H]2COC(=O)c3cc(O)c(O)c(O)c3-c3c(cc(O)c(O)c3O)C(=O)O[C@H]([C@H]1O)[C@@H]2O)c1cc(O)c(O)c(O)c1 [Corilagin]
activity in blocking cytopathic effects (CPE) [1]: no activity | IC50 [2]: 5.5 µM | activity in the ACE2 enzymatic assay [3]: weak activity | activity in biotin-IgG counter assay [4]: not the biotin-IgG counter assay

CC(C)(O/N=C(\C(=O)N[C@@H]1C(=O)N2C(C(=O)[O-])=C(C[n+]3ccccc3)CS[C@H]12)c1csc(N)n1)C(=O)O [ceftazidime]
activity in the TruHits counterscreen [5]: no significant activity | ACE2–RBD binding inhibition in the primary AlphaLISA screen [2]: no significant activity

CCOC(=O)[C@H](CCc1ccccc1)N[C@@H](C)C(=O)N1CCC[C@H]1C(=O)O [enalapril]
ACE2–RBD binding inhibition in the primary AlphaLISA screen [2]: none showed ACE2–RBD binding inhibition

NCCCC[C@H](N[C@@H](CCc1ccccc1)C(=O)O)C(=O)N1CCC[C@H]1C(=O)O [lisinopril]
ACE2–RBD binding inhibition in the primary AlphaLISA screen [2]: none showed ACE2–RBD binding inhibition

CCOC(=O)[C@H](CCc1ccccc1)N[C@@H](C)C(=O)N1Cc2cc(OC)c(OC)cc2C[C@H]1C(=O)O [moexipril]
ACE2–RBD binding inhibition in the primary AlphaLISA screen [2]: none showed ACE2–RBD binding inhibition

CCC(CC)COC(=O)[C@H](C)N[P@](=O)(OC[C@H]1O[C@@](C#N)(c2ccc3c(N)ncnn23)[C@H](O)[C@@H]1O)Oc1ccccc1 [remdesivir]
activity in the TruHits counterscreen [5]: no significant activity | ACE2–RBD binding inhibition in the primary AlphaLISA screen [2]: no significant activity

ACE2-His
competition for ACE2–RBD binding, AlphaLISA signal [6]: dose-dependent signal loss
